Data reported in ChEMBL document CHEMBL5291721, “A preclinical secondary pharmacology resource illuminates target-adverse drug reaction associations of marketed drugs” (Nat Commun, 2023).

Assays:
[1] = target: Neuronal acetylcholine receptor subunit alpha-4 (Homo sapiens, UniProt P43681)
[2] = target: T1, Alpha-2A adrenergic receptor (Homo sapiens, UniProt P08913); format: functional, cell-based
T1 sequence (P08913 whole entry): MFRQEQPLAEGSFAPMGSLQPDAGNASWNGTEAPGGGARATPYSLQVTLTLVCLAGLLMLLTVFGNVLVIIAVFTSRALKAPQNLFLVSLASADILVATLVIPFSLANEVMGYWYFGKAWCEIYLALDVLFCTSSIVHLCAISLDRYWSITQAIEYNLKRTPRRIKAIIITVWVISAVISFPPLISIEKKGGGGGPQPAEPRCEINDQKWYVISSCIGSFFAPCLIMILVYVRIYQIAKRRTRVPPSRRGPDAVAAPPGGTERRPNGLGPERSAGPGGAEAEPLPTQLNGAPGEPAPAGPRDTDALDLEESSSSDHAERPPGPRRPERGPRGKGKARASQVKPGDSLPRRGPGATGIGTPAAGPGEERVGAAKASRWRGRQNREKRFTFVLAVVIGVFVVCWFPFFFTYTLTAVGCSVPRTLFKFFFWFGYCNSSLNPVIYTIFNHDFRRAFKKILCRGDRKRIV

[3] = target: T1, Alpha-2A adrenergic receptor; format: functional, cell-based; remark: listed apart in the source
[4] = target: cGMP-inhibited 3',5'-cyclic phosphodiesterase 3A (Homo sapiens, UniProt Q14432); format: functional
cGMP-inhibited 3',5'-cyclic phosphodiesterase 3A, sequence (Q14432 whole entry): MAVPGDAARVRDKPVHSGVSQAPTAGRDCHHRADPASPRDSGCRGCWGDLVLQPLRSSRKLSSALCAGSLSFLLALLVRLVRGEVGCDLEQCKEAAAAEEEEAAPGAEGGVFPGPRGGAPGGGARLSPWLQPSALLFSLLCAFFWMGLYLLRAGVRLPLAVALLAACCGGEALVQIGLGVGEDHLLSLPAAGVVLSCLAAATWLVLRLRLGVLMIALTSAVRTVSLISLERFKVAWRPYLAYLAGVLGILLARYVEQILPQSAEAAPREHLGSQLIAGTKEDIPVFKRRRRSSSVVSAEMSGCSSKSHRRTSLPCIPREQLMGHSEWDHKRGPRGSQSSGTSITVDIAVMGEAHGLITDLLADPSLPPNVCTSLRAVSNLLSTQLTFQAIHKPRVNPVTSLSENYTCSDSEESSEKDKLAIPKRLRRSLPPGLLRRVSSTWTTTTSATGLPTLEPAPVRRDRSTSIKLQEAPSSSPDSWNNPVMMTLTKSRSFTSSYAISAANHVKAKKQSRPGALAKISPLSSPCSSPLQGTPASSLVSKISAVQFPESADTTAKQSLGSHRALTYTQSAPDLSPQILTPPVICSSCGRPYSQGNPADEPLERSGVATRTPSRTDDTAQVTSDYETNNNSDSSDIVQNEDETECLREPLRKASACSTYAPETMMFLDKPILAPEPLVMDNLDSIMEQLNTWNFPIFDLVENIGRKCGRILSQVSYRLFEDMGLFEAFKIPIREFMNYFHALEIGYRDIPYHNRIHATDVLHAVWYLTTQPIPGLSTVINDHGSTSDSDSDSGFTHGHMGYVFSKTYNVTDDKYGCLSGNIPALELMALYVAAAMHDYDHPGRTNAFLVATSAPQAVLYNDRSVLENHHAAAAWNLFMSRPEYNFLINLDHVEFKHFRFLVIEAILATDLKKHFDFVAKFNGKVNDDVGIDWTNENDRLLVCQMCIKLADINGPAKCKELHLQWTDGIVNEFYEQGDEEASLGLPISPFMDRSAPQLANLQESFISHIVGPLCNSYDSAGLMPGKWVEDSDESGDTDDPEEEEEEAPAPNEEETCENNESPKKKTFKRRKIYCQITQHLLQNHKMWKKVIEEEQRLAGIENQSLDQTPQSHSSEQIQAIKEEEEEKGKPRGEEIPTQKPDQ

[5] = target: T2, Glucocorticoid receptor (Homo sapiens, UniProt P04150)
T2 sequence (P04150 whole entry): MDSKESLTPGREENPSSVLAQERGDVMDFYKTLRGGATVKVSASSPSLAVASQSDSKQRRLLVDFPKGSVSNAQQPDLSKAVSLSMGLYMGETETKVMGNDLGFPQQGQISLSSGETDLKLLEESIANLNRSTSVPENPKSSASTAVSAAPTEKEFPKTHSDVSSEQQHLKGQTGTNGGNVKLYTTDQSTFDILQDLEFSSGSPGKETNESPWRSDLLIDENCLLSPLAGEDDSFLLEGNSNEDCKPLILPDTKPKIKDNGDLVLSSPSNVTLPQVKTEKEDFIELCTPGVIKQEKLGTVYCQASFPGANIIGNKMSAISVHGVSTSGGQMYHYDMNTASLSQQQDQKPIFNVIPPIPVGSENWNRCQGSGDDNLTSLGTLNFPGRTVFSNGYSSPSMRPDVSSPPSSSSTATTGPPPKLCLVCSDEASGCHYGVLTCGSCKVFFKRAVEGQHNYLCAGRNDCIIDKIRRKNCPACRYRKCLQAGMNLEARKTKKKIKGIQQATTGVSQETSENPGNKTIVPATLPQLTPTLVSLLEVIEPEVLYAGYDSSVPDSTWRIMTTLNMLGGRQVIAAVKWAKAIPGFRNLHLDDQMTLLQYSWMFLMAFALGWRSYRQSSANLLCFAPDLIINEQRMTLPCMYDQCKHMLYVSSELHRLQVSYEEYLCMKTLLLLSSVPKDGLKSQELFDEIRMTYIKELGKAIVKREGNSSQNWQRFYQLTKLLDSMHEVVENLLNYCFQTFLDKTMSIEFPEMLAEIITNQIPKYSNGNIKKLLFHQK
Further: assay procedure not described here.

Neuronal acetylcholine receptor subunit alpha-4, sequence (P43681 whole entry): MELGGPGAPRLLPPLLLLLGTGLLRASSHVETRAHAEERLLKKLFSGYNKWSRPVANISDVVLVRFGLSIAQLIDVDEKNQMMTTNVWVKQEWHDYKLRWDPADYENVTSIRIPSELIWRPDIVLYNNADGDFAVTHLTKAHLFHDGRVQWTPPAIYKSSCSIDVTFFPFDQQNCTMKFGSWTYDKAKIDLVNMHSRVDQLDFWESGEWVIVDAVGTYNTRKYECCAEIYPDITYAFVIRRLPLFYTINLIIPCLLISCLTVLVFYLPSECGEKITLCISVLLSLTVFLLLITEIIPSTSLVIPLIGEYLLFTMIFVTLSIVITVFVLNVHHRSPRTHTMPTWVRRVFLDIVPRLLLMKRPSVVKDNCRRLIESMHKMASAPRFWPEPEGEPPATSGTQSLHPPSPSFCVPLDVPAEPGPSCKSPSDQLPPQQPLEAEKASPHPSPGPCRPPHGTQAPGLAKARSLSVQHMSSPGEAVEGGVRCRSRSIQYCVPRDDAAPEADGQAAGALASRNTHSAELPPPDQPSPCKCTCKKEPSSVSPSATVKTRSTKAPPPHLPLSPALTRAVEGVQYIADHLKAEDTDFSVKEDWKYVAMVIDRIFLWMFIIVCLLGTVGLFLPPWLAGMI

SMILES	AC50 [1] [µM]	AC50 [2] [µM]	AC50 [3] [µM]	AC50 [4] [µM]	AC50 [5] [µM]
CCOc1cc([C@@H](CS(C)(=O)=O)N2C(=O)c3cccc(NC(C)=O)c3C2=O)ccc1OC	> 30	> 30	> 30	> 30	
CC(=O)Nc1ccc(CC(=O)O)cc1 [ACTARIT]	> 30	> 30	> 30	> 30	> 30
CC(C(=O)O)c1ccc2oc(-c3ccc(Cl)cc3)nc2c1 (stereo unspecified) [BENOXAPROFEN]	> 30	> 30	> 30	> 30	> 30
CC1(C)S[C@@H]2[C@H](NC(=O)C(C(=O)O)c3ccccc3)C(=O)N2[C@H]1C(=O)O (stereo partly specified) [CARBENICILLIN]	> 30	> 30	> 30	> 30	> 30
Cc1nnc(SCC2=C(C(=O)O)N3C(=O)[C@@H](NC(=O)Cn4cnnn4)[C@H]3SC2)s1 [CEFAZOLIN]	> 300	> 300	> 300	> 300	
CC(C)(O/N=C(\C(=O)N[C@@H]1C(=O)N2C(C(=O)[O-])=C(C[n+]3ccccc3)CS[C@H]12)c1csc(N)n1)C(=O)O [CEFTAZIDIME]	> 300	> 300	> 300	> 300	> 30
CC(C)NC(=N)NC(=N)Nc1ccc(Cl)c(Cl)c1 [CHLORPROGUANIL]		> 30	> 30	> 30	
C[N+](C)(C)CCOP(=O)(O)OP(=O)([O-])OC[C@H]1O[C@@H](n2ccc(N)nc2=O)[C@H](O)[C@@H]1O [CITICOLINE]		> 30	> 30	> 30	
Clc1ccc(Cn2c(CN3CCCC3)nc3ccccc32)cc1 [CLEMIZOLE]	> 10	> 10	> 10	> 30	
CCC(=O)O[C@]1(C(=O)CCl)[C@@H](C)C[C@H]2[C@@H]3CCC4=CC(=O)C=C[C@]4(C)[C@@]3(F)[C@@H](O)C[C@@]21C [CLOBETASOL PROPIONATE]		> 30	> 30	> 30	0.0078
CC(C)Cc1ccc([C@H](C)C(=O)O)cc1 [DEXIBUPROFEN]	> 30	> 30	> 30	> 30	
CNC[C@H](O)c1ccc(O)c(O)c1 [EPINEPHRINE]	> 30			> 30	
Cc1onc(-c2c(F)cccc2Cl)c1C(=O)N[C@@H]1C(=O)N2[C@@H]1SC(C)(C)[C@@H]2C(=O)O [FLOXACILLIN]	> 30	> 30	> 30	> 30	
COc1ccccc1OC1(C)OC(=O)c2ccccc2O1 (stereo unspecified) [GUAIMESAL]	> 30				> 30
CCCCCCCN(CC)CCCC(O)c1ccc(NS(C)(=O)=O)cc1 (stereo unspecified) [IBUTILIDE]	> 30	> 30	> 30	> 30	> 30
COc1cc(C(C)=O)ccc1OCCCN1CCC(c2noc3cc(F)ccc23)CC1 [ILOPERIDONE]	2	> 30	0.45		
CN1Cc2c(N)cccc2C(c2ccccc2)C1 (stereo unspecified) [NOMIFENSINE]	> 30	> 30	> 30	> 30	> 30
Cn1cc(C(=O)[C@@H]2CCc3nc[nH]c3C2)c2ccccc21 [RAMOSETRON]	> 30	> 30	4.3	> 30	> 30
S=P(N1CC1)(N1CC1)N1CC1 [THIOTEPA]	> 30	> 30	14	> 30	
CC(C)C[C@H](NC(=O)[C@@H](O)[C@H](N)Cc1ccccc1)C(=O)O [UBENIMEX]	> 30	> 30	> 30	> 30	20
